ChEMBL document CHEMBL5523675, “Novel mitochondrial and DNA damaging fluorescent Calix[4]arenes bearing isatin groups as aromatase inhibitors: Design, synthesis and anticancer activity” (Bioorg Med Chem, 2024)

Legend:
[1] = Antiproliferative activity against human PNT1A cells assessed as inhibition of cell growth measured after 48 hrs by Alamar blue dye based assay; format: toxicity
MCF7 [2] = test: Antiproliferative activity against human MCF7 cells assessed as inhibition of cell growth measured after 48 hrs by Alamar blue dye based assay; format: functional; details: MCF7, 48 h
MDA-MB-231 [3] = test: Antiproliferative activity against human MDA-MB-231 cells assessed as inhibition of cell growth measured after 48 hrs by Alamar blue dye based assay; format: functional; details: MDA-MB-231, 48 h
PNT1A [4] = test: Induction of apoptosis in human PNT1A cells assessed as live cells incubated for 48 hrs by annexin V and 7-AAD staining based flow cytometry analysis (reference value: 99.69%); format: functional
PNT1A [5] = test: Induction of apoptosis in human PNT1A cells assessed as early apoptotic cells incubated for 48 hrs by annexin V and 7-AAD staining based flow cytometry analysis (reference value: 0.04%); format: functional
PNT1A [6] = test: Induction of apoptosis in human PNT1A cells assessed as late apoptotic cells incubated for 48 hrs by annexin V and 7-AAD staining based flow cytometry analysis (reference value: 0.04%); format: functional
PNT1A [7] = test: Induction of apoptosis in human PNT1A cells assessed as necrosis incubated for 48 hrs by annexin V and 7-AAD staining based flow cytometry analysis (reference value: 0.22%); format: functional
MDA-MB-231 [8] = test: Induction of apoptosis in human MDA-MB-231 cells assessed as live cells incubated for 48 hrs by annexin V and 7-AAD staining based flow cytometry analysis (reference value: 99.61%); format: functional
MDA-MB-231 [9] = test: Induction of apoptosis in human MDA-MB-231 cells assessed as early apoptotic cells incubated for 48 hrs by annexin V and 7-AAD staining based flow cytometry analysis (reference value: 0.18%); format: functional
MDA-MB-231 [10] = test: Induction of apoptosis in human MDA-MB-231 cells assessed as late apoptotic cells incubated for 48 hrs by annexin V and 7-AAD staining based flow cytometry analysis (reference value: 0.12%); format: functional
MDA-MB-231 [11] = test: Induction of apoptosis in human MDA-MB-231 cells assessed as necrosis incubated for 48 hrs by annexin V and 7-AAD staining based flow cytometry analysis (reference value: 0.09%); format: functional
MCF7 [12] = test: Induction of apoptosis in human MCF7 cells assessed as live cells incubated for 48 hrs by annexin V and 7-AAD staining based flow cytometry analysis (reference value: 99.14%); format: functional
MCF7 [13] = test: Induction of apoptosis in human MCF7 cells assessed as early apoptotic cells incubated for 48 hrs by annexin V and 7-AAD staining based flow cytometry analysis (reference value: 0.14%); format: functional
MCF7 [14] = test: Induction of apoptosis in human MCF7 cells assessed as late apoptotic cells incubated for 48 hrs by annexin V and 7-AAD staining based flow cytometry analysis (reference value: 0.68%); format: functional
MCF7 [15] = test: Induction of apoptosis in human MCF7 cells assessed as necrosis incubated for 48 hrs by annexin V and 7-AAD staining based flow cytometry analysis (reference value: 0.03%); format: functional
Aromatase = biological target: T1, Aromatase (Homo sapiens, UniProt P11511); test: Inhibition of human Aromatase by fluorimetric assay
T1 sequence (P11511 whole entry): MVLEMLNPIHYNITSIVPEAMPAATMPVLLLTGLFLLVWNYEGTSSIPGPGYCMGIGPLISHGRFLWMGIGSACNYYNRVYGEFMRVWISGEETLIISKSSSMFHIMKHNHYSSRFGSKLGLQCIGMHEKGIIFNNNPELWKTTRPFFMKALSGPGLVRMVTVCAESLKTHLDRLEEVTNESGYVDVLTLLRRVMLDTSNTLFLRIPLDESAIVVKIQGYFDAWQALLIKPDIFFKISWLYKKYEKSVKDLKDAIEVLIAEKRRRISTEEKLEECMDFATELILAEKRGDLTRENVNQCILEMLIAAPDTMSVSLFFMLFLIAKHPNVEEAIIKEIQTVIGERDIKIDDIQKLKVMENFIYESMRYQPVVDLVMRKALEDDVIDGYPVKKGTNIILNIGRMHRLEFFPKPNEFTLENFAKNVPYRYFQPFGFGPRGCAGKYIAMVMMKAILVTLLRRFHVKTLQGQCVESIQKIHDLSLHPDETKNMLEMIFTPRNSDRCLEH

[16] = Genotoxicity in human MCF7 cells assessed as abnormal tail nuclei measured after 48 hrs by ethidium bromide staining based fluorescent microscopic analysis; format: toxicity, cell-based; details: mcf7, 48 h
[17] = Genotoxicity in human MCF7 cells assessed as appearance of damaged DNA structures measured after 48 hrs by ethidium bromide staining based fluorescent microscopic analysis; format: toxicity, cell-based; details: mcf7, 48 h
[18] = Genotoxicity in human MDA-MB-231 cells assessed as appearance of damaged DNA structures measured after 48 hrs by ethidium bromide staining based fluorescent microscopic analysis; format: toxicity, cell-based; details: mda-mb-231, 48 h
[19] = Genotoxicity in human MDA-MB-231 cells assessed as abnormal tail nuclei measured after 48 hrs by ethidium bromide staining based fluorescent microscopic analysis; format: toxicity, cell-based; details: mda-mb-231, 48 h
[20] = Drug localization in mitochondria of human MDA-MB-231 cells at 2 uM incubated for 45 mins by MitoTracker dye based confocal laser scanning microscopic analysis; format: ADME; details: mda-mb-231, 0.75 h

| Structure (SMILES) | IC50 at 48 h [1] [µM] | IC50 (MCF7 [2]) [µM] | IC50 (MDA-MB-231 [3]) [µM] | Live cells (PNT1A [4]) [%] | Activity (PNT1A [5]) [%] | Activity (PNT1A [6]) [%] | Activity (PNT1A [7]) [%] | Activity (MDA-MB-231 [8]) [%] | Activity (MDA-MB-231 [9]) [%] | Activity (MDA-MB-231 [10]) [%] | Activity (MDA-MB-231 [11]) [%] | Activity (MCF7 [12]) [%] | Activity (MCF7 [13]) [%] | Activity (MCF7 [14]) [%] | Activity (MCF7 [15]) [%] | IC50 (Aromatase) [µM] | Activity [16] | Activity [17] | Activity [18] | Activity [19] | other results |
| --- | --- | --- | --- | --- | --- | --- | --- | --- | --- | --- | --- | --- | --- | --- | --- | --- | --- | --- | --- | --- | --- |
| C[n+]1ccc(/C=C/c2cc3c(O)c(c2)Cc2cc(C(C)(C)C)cc(c2OCCCn2cc(CBr)nn2)Cc2cc(/C=C/c4cc[n+](C)cc4)cc(c2O)Cc2cc(C(C)(C)C)cc(c2OCCCn2cc(CBr)nn2)C3)cc1 | 86.4 | 28.4 | 22.8 | – | – | – | – | – | – | – | – | – | – | – | – | – | – | – | – | – | – |
| C[n+]1ccc(/C=C/c2cc3c(O)c(c2)Cc2cc(C(C)(C)C)cc(c2OCCCn2cc(CN4C(=O)C(=O)c5ccccc54)nn2)Cc2cc(/C=C/c4cc[n+](C)cc4)cc(c2O)Cc2cc(C(C)(C)C)cc(c2OCCCn2cc(CN4C(=O)C(=O)c5ccccc54)nn2)C3)cc1.[I-].[I-] | 77.6 | 19.2 | 9.24 | 99.14 | 0.16 | 0.08 | 0.63 | 91.42 | 0.26 | 1.66 | 6.66 | 50.95 | 8.09 | 37.69 | 3.27 | 0.518 | Toxic | Toxic | Toxic | Toxic | – |
| C[n+]1ccc(/C=C/c2cc3c(O)c(c2)Cc2cc(C(C)(C)C)cc(c2OCCCn2cc(CN4C(=O)C(=O)c5cc(I)ccc54)nn2)Cc2cc(/C=C/c4cc[n+](C)cc4)cc(c2O)Cc2cc(C(C)(C)C)cc(c2OCCCn2cc(CN4C(=O)C(=O)c5cc(I)ccc54)nn2)C3)cc1.[I-].[I-] | 72.5 | 15.1 | 3.98 | 96.68 | 2.22 | 1.09 | 0.02 | 84.61 | 0.21 | 1.57 | 13.61 | 49.15 | 12.97 | 36.55 | 1.33 | 1.03 | Toxic | Toxic | Toxic | Toxic | – |
| C[n+]1ccc(/C=C/c2cc3c(O)c(c2)Cc2cc(C(C)(C)C)cc(c2OCCCn2cc(CN4C(=O)C(=O)c5cc(F)ccc54)nn2)Cc2cc(/C=C/c4cc[n+](C)cc4)cc(c2O)Cc2cc(C(C)(C)C)cc(c2OCCCn2cc(CN4C(=O)C(=O)c5cc(F)ccc54)nn2)C3)cc1.[I-].[I-] | 62.9 | 11.6 | 5.59 | 93.92 | 5.69 | 0.28 | 0.1 | 64.85 | 0.11 | 2.03 | 33.01 | 41.92 | 2.18 | 45.79 | 10.11 | 0.711 | Toxic | Toxic | Toxic | Toxic | – |
| Cc1ccc2c(c1)C(=O)C(=O)N2Cc1cn(CCCOc2c3cc(C(C)(C)C)cc2Cc2cc(/C=C/c4cc[n+](C)cc4)cc(c2O)Cc2cc(C(C)(C)C)cc(c2OCCCn2cc(CN4C(=O)C(=O)c5cc(C)ccc54)nn2)Cc2cc(/C=C/c4cc[n+](C)cc4)cc(c2O)C3)nn1.[I-].[I-] | 74.9 | 10.2 | 5.23 | 95.6 | 3.99 | 0.35 | 0.06 | 83.89 | 0.02 | 1.31 | 14.78 | 71.51 | 10.49 | 15.04 | 2.96 | 0.218 | Toxic | Toxic | Toxic | Toxic | – |
| C[n+]1ccc(/C=C/c2cc3c(O)c(c2)Cc2cc(C(C)(C)C)cc(c2OCCCn2cc(CN4C(=O)C(=O)c5cc(Br)ccc54)nn2)Cc2cc(/C=C/c4cc[n+](C)cc4)cc(c2O)Cc2cc(C(C)(C)C)cc(c2OCCCn2cc(CN4C(=O)C(=O)c5cc(Br)ccc54)nn2)C3)cc1.[I-].[I-] | 57.2 | 10.1 | 3.78 | 96.14 | 2.6 | 1.13 | 0.14 | 87.12 | 0.4 | 1.6 | 10.87 | 40.42 | 34.66 | 24.62 | 0.3 | 0.315 | Toxic | Toxic | Toxic | Toxic | – |
| C[n+]1ccc(/C=C/c2cc3c(O)c(c2)Cc2cc(C(C)(C)C)cc(c2OCCCn2cc(CN4C(=O)C(=O)c5cc(Cl)ccc54)nn2)Cc2cc(/C=C/c4cc[n+](C)cc4)cc(c2O)Cc2cc(C(C)(C)C)cc(c2OCCCn2cc(CN4C(=O)C(=O)c5cc(Cl)ccc54)nn2)C3)cc1.[I-].[I-] | 32.9 | 8.83 | 3.32 | 97.91 | 1.74 | 0.25 | 0.11 | 83.4 | 0.23 | 2.74 | 13.63 | 53.45 | 4.56 | 36.24 | 5.75 | 0.104 | Toxic | Toxic | Toxic | Toxic | Drug uptake [20]: Active |
| O=c1[nH]cc(F)c(=O)[nH]1 [FLUOROURACIL] | 192 | 35.3 | 6.81 | – | – | – | – | – | – | – | – | – | – | – | – | – | – | – | – | – | – |
